Data taken from US20150315188A1, “COMPOUNDS AND METHODS FOR TREATMENT OF HYPERTENSION” (MEDIVATION TECHNOLOGIES, INC., priority 2012, published 2015).

How the values were obtained:
[1] = biological target: T1, Human adrenergic α2B receptor (Homo sapiens, UniProt P18089); assay: β-Arrestin GPCR functional assay, adrenergic α2B (Protocol B); type: cell-based; conditions: for Percentage inhibition, Adrenergic α2B: nor-epinephrine at EC80 (50 nM); for IC50: β-arrestin, antagonist vs nor-epinephrine EC80, read-out: IC50 Adrenergic α2B
T1 sequence (P18089 1-450): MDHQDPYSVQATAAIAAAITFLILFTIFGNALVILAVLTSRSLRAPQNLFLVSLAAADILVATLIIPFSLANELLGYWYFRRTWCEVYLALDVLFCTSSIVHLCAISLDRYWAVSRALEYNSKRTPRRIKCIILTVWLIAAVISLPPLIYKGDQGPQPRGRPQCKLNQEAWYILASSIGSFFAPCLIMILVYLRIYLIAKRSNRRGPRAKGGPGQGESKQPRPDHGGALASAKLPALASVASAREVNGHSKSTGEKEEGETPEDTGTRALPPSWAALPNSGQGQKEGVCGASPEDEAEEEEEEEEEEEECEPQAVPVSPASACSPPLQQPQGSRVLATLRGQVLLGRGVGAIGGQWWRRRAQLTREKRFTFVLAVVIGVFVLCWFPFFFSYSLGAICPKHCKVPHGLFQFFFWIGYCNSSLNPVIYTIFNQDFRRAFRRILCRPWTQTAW
Method in brief: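 CHO cells overexpressing human α2B (PathHunter β-arrestin), 12,000 per well, 24 h at 37° C; compounds in 1% DMSO 30 min, then 50 nM norepinephrine (EC80) 90 min at 37° C.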

[2] = biological target: T2, Human adrenergic α2A receptor (Homo sapiens, UniProt P08913); assay: Radioligand binding, adrenergic α2A (Protocol Group B); design: purchased Milipore (Millipore); conditions: for Percentage inhibition of ligand binding, Adrenergic α2A (0.1 μM) / inhibition at 0.1 µM: 0.1 μM compound; for Percentage inhibition of ligand binding, Adrenergic α2A (0.1 μM) / Percentage inhibition of ligand binding, Adrenergic α2A (0.3 μM) / Ki / inhibition at 0.1 µM / inhibition at 0.3 µM: Protocol Group B; for Percentage inhibition of ligand binding, Adrenergic α2A (0.3 μM) / inhibition at 0.3 µM: 0.3 μM compound; for Ki: estimated Ki; for inhibition at 0.1 µM: read-out: Percentage inhibition of ligand binding, Adrenergic α2A (0.1 μM); for inhibition at 0.3 µM: read-out: Percentage inhibition of ligand binding, Adrenergic α2A (0.3 μM)
T2 sequence (P08913 1-465): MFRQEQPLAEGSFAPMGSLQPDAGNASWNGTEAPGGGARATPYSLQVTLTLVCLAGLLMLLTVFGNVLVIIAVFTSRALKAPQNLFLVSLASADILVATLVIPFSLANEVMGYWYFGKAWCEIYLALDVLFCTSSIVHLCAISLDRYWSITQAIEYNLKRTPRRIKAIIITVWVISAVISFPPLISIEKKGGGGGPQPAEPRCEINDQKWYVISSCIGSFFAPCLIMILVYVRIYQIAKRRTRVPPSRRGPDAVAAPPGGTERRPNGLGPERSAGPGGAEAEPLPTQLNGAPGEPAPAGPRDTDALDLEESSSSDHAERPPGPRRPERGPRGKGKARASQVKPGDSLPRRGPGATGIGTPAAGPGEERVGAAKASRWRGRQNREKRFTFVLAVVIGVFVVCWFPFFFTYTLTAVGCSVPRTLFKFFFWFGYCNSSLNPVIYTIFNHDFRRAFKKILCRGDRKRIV
Method in brief: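 Membranes from recombinant cells expressing the receptor, in 50 mM Tris-HCl pH 7.4 with 5 mM MgCl2, 1 mM CaCl2, 0.2% BSA; compounds incubated with 2 nM [^3H]MK-912 for 60 min at 25° C. Nonspecific binding defined by 10 μM rauwolscine; filtration, counting; percent inhibition of specific binding, or estimated Ki.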

[3] = biological target: T3, Human adrenergic α1B receptor (Homo sapiens, UniProt P35368); assay: Radioligand binding, adrenergic α1B (Protocol Group B); design: purchased Milipore (Millipore); conditions: for Percentage inhibition of ligand binding, Adrenergic α1B (0.1 μM) / inhibition at 0.1 µM: 0.1 μM compound; for Percentage inhibition of ligand binding, Adrenergic α1B (0.1 μM) / Percentage inhibition of ligand binding, Adrenergic α1B (0.3 μM) / Ki / inhibition at 0.1 µM / inhibition at 0.3 µM: Protocol Group B; for Percentage inhibition of ligand binding, Adrenergic α1B (0.3 μM) / inhibition at 0.3 µM: 0.3 μM compound; for Ki: estimated Ki; for inhibition at 0.1 µM: read-out: Percentage inhibition of ligand binding, Adrenergic α1B (0.1 μM); for inhibition at 0.3 µM: read-out: Percentage inhibition of ligand binding, Adrenergic α1B (0.3 μM)
T3 sequence (P35368 1-520): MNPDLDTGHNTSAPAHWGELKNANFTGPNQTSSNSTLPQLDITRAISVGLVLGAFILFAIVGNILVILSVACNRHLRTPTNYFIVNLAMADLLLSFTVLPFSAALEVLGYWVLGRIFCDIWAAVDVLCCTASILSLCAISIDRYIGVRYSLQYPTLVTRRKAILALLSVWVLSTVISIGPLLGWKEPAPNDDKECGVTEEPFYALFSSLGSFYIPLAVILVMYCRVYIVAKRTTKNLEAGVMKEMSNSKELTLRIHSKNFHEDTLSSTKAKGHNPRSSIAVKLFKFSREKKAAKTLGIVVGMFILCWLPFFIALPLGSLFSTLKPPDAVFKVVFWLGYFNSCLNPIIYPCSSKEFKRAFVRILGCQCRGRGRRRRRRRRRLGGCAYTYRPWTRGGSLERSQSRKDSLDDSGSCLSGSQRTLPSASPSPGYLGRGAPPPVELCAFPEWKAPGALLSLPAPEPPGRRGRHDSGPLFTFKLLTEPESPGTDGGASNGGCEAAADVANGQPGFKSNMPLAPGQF
Method in brief: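 Recombinant human α1B membranes incubated with test compound and 0.3 nM [3H]prazosin, 60 min at 25 °C, in 50 mM Tris-HCl pH 7.4, 10 mM MgCl2, 1 mM EDTA; nonspecific binding with 10 μM prazosin. Filter-bound radioactivity counted; values are % inhibition of specific binding or estimated Ki.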

[4] = 3.2 nM compound, concentration series, 0.0032 µM
[5] = 10 nM compound, concentration series, 0.01 µM
[6] = 0.032 μM compound, concentration series, 0.032 µM
[7] = 0.32 μM compound, concentration series, 0.32 µM
[8] = 1 μM compound, concentration series, 1 µM

IC50 [1] [nM]	Percentage inhibition of ligand binding, Adrenergic α2A (0.1 μM) [2] [%]	Percentage inhibition of ligand binding, Adrenergic α2A (0.3 μM) [2] [%]	Ki [2] [nM]	Percentage inhibition of ligand binding, Adrenergic α1B (0.1 μM) [3] [%]	Percentage inhibition of ligand binding, Adrenergic α1B (0.3 μM) [3] [%]	Ki [3] [nM]	Structure (SMILES)	also measured
52	51	77	36	60	85	37.5	Cc1cc(C)c2c(c1)c1c(n2CC(C)(O)c2ccncc2)CCN2CCCC12 (single isomer, unassigned) [19b]	Percentage inhibition, Adrenergic α2B ([1]; 10 nM compound): 15%; Percentage inhibition, Adrenergic α2B ([1]; 30 nM compound): 34%; Percentage inhibition, Adrenergic α2B ([1]; 0.1 μM compound): 86%; Percentage inhibition of ligand binding, Adrenergic α2A, 3.2 nM [2, 4]: 12%; Percentage inhibition of ligand binding, Adrenergic α2A, 10 nM [2, 5]: 4%; Percentage inhibition of ligand binding, Adrenergic α2A, 0.032 μM [2, 6]: 27%; Percentage inhibition of ligand binding, Adrenergic α2A, 0.32 μM [2, 7]: 67%; Percentage inhibition of ligand binding, Adrenergic α2A, 1 μM [2, 8]: 84%; Percentage inhibition of ligand binding, Adrenergic α2A, 3.2 μM ([2]; 3.2 μM compound, concentration series, 3.2 µM): 95%; inhibition at 10 µM ([2]; 10 μM compound, concentration series, read-out: Percentage inhibition of ligand binding, Adrenergic α2A, 10 μM): 100%; Percentage inhibition of ligand binding, Adrenergic α1B, 1 nM ([3]; 1 nM compound, concentration series, 0.001 µM): 3%; Percentage inhibition of ligand binding, Adrenergic α1B, 3.2 nM [3, 4]: 6%; Percentage inhibition of ligand binding, Adrenergic α1B, 10 nM [3, 5]: 1%; Percentage inhibition of ligand binding, Adrenergic α1B, 0.032 μM [3, 6]: 15%; Percentage inhibition of ligand binding, Adrenergic α1B, 0.32 μM [3, 7]: 76%; Percentage inhibition of ligand binding, Adrenergic α1B, 1 μM [3, 8]: 87%; inhibition at 3.2 µM ([3]; 3.2 μM compound, concentration series, read-out: Percentage inhibition of ligand binding, Adrenergic α1B, 3.2 μM): 92%
87	–	–	279	–	–	145	CC(O)(Cn1c2c(c3cc(F)ccc31)C1CCCN1CC2)c1ccncc1 (single isomer, unassigned) [31a]	inhibition at 0.1 µM [2]: 33%; inhibition at 0.3 µM [2]: 48%; inhibition at 0.1 µM [3]: 24%; inhibition at 0.3 µM [3]: 47%
66	26	38	362	30	50	134	CC(O)(Cn1c2c(c3cc(F)ccc31)C1CCCN1CC2)c1ccncc1 (single isomer, unassigned) [31b]	–
255	67	86	28.5	40	71	60	Cc1ccc2c(c1)c1c(n2CC(OC2CCCC2)c2ccncc2)CCN(C)C1 (single isomer, unassigned) [35a]	–
181	–	–	55	–	70	54	CCCOC(Cn1c2c(c3cc(C)ccc31)CN(C)CC2)c1ccncc1 (single isomer, unassigned) [42a]	inhibition at 0.1 µM [2]: 37%; inhibition at 0.3 µM [2]: 63%; inhibition at 0.1 µM [3]: 44%
41	32	48	154	27	45	199	CCCOC(Cn1c2c(c3cc(C)ccc31)CN(C)CC2)c1ccncc1 (single isomer, unassigned) [42b]	–
119	46	63	50	29	55	111	CCOC(Cn1c2c(c3cc(C)ccc31)CN(C)CC2)c1ccncc1 (single isomer, unassigned) [43a]	–
91	14	28	374	14	30	278	CCOC(Cn1c2c(c3cc(C)ccc31)CN(C)CC2)c1ccncc1 (single isomer, unassigned) [43b]	–
178	47	70	114	40	–	63.7	Cc1cc(C)c2c(c1)c1c(n2CC(C)(O)c2cccnc2)CCN2CCCC12 (single isomer, unassigned) [44a]	inhibition at 0.3 µM [3]: 71%
10	89	98	6.2	69	85	14	Cc1cc(C)c2c(c1)c1c(n2CC(C)(O)c2cccnc2)CCN2CCCC12 (single isomer, unassigned) [44b]	–
20	–	–	31.1	–	–	8.15	Cc1ccc2c(c1)c1c(n2CC(C)(O)c2ccnc(F)c2)CCN2CCCC12 (single isomer, unassigned) [48a]	inhibition at 0.1 µM [2]: 73%; inhibition at 0.3 µM [2]: 82%; inhibition at 0.1 µM [3]: 85%; inhibition at 0.3 µM [3]: 94%
18	83	87	16.4	71	84	25.9	Cc1ccc2c(c1)c1c(n2CC(C)(O)c2ccnc(F)c2)CCN2CCCC12 (single isomer, unassigned) [48b]	–
14	–	–	6.7	–	–	3.7	Cc1cc2c3c(n(CC(C)(O)c4ccncc4)c2cc1Cl)CCN1CCCC31 (single isomer, unassigned) [50a]	inhibition at 0.1 µM [2]: 72%; inhibition at 0.3 µM [2]: 83%; inhibition at 0.1 µM [3]: 89%; inhibition at 0.3 µM [3]: 96%
12	73	86	5.69	80	93	6.9	Cc1cc2c3c(n(CC(C)(O)c4ccncc4)c2cc1Cl)CCN1CCCC31 (single isomer, unassigned) [50b]	–
